Test results from ChEMBL document CHEMBL1201862, “PubChem BioAssay data set” (2004).

Experiments:
[1] = target: Transitional endoplasmic reticulum ATPase (Homo sapiens, UniProt P55072); experiment: Luminescence dose response biochemical high throughput screening assay for inhibitors of the p97 ATPase: synthesized compounds. [Related pubchem assays: 1481, 1517 ]
[2] = target: Transitional endoplasmic reticulum ATPase (Homo sapiens, UniProt P55072, C522A); experiment: Luminescence counterscreen assay for p97 inhibitors: dose response biochemical high throughput screening assay to identify inhibitors of the C522A mutant p97 ATPase: synthesized compounds. [Related pubchem assays: 1481, 1517, 1551 ]
[3] = target: T1, Bcl-2-related protein A1 (Mus musculus, UniProt Q07440); experiment: small-molecule antagonists of Bfl-1/BH3 interaction – biochemical, TR-FRET, mouse Bfl-1, confirmation (AID 621);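 also: TR-FRET binding of GST-Bfl-1 to FITC-labelled Bid peptide via terbium antibody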
T1 sequence (Q07440 whole entry): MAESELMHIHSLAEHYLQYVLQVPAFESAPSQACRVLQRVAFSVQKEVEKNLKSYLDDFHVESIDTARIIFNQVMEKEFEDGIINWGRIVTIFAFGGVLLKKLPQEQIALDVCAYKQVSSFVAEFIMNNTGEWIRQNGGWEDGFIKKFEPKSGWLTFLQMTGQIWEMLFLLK

[4] = target: T2, Zinc finger protein mex-5 (Caenorhabditis elegans, UniProt Q9XUB2); experiment: potency of MEX-5 RNA-binding blockers – biochemical, C. elegans, fluorescence polarization, dose response (AID 1960)
T2 sequence (Q9XUB2 whole entry): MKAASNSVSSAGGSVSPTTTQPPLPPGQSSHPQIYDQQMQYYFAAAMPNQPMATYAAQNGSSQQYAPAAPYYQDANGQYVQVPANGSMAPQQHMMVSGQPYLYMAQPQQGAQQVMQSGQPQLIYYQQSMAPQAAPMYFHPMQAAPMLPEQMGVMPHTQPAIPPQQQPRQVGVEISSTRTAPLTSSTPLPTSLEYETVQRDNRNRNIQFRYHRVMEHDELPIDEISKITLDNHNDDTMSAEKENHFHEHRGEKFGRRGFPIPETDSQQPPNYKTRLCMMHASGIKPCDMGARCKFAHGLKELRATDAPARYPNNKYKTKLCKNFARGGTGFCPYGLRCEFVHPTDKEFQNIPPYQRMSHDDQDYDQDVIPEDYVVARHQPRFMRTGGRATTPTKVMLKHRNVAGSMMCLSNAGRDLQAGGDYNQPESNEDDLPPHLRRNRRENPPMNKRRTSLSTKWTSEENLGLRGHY

[5] = target: T3, RNA-binding protein pos-1 (Caenorhabditis elegans, UniProt G5EF15); experiment: disruptors of C. elegans POS-1 RNA interaction – biochemical, fluorescence polarization, dose response (AID 1964);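 also: purified POS-1 fused to maltose binding protein made in E. coli; potency of compounds blocking POS-1 binding to fluorescent RNA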
T3 sequence (G5EF15 whole entry): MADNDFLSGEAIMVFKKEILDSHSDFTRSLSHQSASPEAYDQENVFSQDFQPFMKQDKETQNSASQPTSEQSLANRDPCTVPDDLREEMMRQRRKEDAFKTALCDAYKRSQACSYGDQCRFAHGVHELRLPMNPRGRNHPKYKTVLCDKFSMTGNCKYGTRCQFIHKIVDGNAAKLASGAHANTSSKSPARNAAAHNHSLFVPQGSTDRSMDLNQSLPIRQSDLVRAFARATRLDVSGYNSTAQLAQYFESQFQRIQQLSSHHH

[6] = target: T1, Bcl-2-related protein A1; experiment: displacement of Bid BH3 peptide from Bfl-1 – biochemical, fluorescence polarization, FITC-Bid, mouse, primary screen (AID 432)
[7] = target: 14-3-3 protein gamma (Homo sapiens, UniProt P61981); experiment: modulators of 14-3-3 gamma client binding – dose response (AID 711); format: functional
Sequence of 14-3-3 protein gamma (P61981 whole entry): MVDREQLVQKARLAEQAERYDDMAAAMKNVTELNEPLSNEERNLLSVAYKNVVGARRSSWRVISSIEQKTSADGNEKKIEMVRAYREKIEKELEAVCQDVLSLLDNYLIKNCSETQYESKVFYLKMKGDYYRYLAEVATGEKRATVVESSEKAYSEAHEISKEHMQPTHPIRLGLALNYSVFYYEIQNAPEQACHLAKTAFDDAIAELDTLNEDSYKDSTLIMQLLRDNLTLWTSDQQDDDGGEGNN

Sequence of Transitional endoplasmic reticulum ATPase (Homo sapiens, UniProt P55072) (P55072 whole entry): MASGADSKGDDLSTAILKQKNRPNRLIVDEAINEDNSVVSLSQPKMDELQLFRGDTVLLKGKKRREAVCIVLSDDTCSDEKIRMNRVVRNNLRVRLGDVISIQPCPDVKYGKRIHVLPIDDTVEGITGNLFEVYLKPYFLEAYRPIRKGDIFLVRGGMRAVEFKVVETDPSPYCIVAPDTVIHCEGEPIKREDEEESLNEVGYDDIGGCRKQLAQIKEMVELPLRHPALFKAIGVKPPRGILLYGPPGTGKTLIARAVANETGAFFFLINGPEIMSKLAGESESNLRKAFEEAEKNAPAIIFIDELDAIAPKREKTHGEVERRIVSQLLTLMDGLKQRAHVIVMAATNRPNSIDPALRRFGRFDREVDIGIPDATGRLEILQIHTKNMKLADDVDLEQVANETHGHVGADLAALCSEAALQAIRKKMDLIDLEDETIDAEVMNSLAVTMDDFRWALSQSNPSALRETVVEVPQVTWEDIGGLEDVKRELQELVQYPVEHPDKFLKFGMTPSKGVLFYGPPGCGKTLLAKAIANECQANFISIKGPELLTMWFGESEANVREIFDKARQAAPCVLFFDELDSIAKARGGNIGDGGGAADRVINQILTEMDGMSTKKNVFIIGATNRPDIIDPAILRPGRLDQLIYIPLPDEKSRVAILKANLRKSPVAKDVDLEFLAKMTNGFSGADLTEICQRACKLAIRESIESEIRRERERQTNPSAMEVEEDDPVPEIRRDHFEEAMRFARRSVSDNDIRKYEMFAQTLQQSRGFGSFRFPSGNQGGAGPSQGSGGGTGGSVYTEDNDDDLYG
Sequence of Transitional endoplasmic reticulum ATPase (Homo sapiens, UniProt P55072, C522A) (P55072 2-806 C522A limits assumed): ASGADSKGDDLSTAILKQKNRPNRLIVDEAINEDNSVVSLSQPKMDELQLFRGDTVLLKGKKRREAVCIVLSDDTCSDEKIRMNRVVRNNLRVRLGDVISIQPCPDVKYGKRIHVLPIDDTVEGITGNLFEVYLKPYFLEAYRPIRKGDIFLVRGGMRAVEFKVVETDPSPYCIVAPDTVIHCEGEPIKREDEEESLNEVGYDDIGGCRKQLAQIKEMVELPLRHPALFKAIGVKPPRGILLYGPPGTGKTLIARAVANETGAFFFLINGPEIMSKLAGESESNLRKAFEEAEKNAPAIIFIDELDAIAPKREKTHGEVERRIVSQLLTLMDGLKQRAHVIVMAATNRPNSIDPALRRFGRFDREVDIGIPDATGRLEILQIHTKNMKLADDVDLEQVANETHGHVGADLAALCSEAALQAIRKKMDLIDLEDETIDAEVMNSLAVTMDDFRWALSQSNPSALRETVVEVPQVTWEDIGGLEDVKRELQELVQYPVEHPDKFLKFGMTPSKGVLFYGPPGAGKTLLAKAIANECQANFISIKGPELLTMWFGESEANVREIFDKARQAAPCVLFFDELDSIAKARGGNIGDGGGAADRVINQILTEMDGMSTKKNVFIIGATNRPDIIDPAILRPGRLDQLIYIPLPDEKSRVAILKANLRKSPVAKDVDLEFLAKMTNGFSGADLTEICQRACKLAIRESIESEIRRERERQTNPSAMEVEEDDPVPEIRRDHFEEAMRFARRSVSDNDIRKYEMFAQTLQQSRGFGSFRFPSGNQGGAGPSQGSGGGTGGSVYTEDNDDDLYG

SMILES | IC50 [1] | IC50 [2] | IC50 [3] | EC50 [4] | EC50 [5] | IC50 [6] | IC50 [7]
CCOC(=O)/C(C#N)=C/c1c2ccccc2cc2ccccc12 | > 50 µM (not active) | > 50 µM (not active) | – | – | – | – | –
Cc1ccc(C2C3CN(C(C)C)CC=C3C(C#N)=C(N)C2(C#N)C#N)cc1 (configuration not stated) | – | – | > 100 µM (not active) | 8.29 µM (inconclusive) | 7.15 µM (inconclusive) | > 100 µM (not active) | > 50 µM (not active)
